The results in this text go back to patent US20120264796A1, “METHODS FOR MODULATING CIRCADIAN RHYTHMS” (THE SALK INSTITUTE FOR BIOLOGICAL STUDIES, priority 2009, published 2012).

Common to all, as to format: cell-based
Test [1] concerns wild type (AMPK+/+) mouse embryonic fibroblasts. Nature of the test: Circadian reverbα and dbp expression by quantitative PCR in serum-stimulated wild type fibroblasts. To be noted: 25 mM glucose supplemented with 1 mM AICAR, after 2 hour 50% horse serum, compared with 0.5 mM glucose. How it is done:
(§1) (A) Unsynchronized paired wild type (AMPK^+/+) or ampkα1^−/−; ampkα2^−/− (AMPK−/−) mouse embryonic fibroblasts were stimulated by 2 hour exposure to 50% horse serum followed by transfer to media containing 25 mM glucose, 0.5 mM glucose or 25 mM glucose supplemented with 1 mM AICAR. Quantitative PCR analysis was performed using cDNA samples collected at the indicated times following stimulation. Data represent the mean of two independent experiments, each analyzed in triplicate. (B) Fibroblasts stably expressing Bmal1-luciferase were cultured in media containing the indicated amounts of glucose with or without 2 mM AICAR. Typical results of continuous monitoring of luciferase activity are shown. (C and D) Quantitation of the circadian period (C) and amplitude (D) of Bmal1-driven luciferase activity from experiments performed as described in (B). Data in (C) and (D) represent the mean±standard deviation for four samples per condition. […]
(§2) FIG. 4A-B show disruption of AMPK alters circadian rhythms in MEFs. […] Quantitative PCR analysis was performed using cDNA samples prepared from lysates collected at the indicated times following stimulation. Data represent the mean±standard deviation of two or three independent experiments each analyzed in triplicate. […]

In test [2] the test system is ampkα1−/−; ampkα2−/− (AMPK−/−) mouse embryonic fibroblasts. Description: Circadian reverbα and dbp expression by quantitative PCR in serum-stimulated MEFs lacking AMPK. As to conditions: 25 mM glucose supplemented with 1 mM AICAR. How it is done:
as §1, §2

Test [3] deals with Fibroblasts stably expressing Bmal1-luciferase. Description: Continuous monitoring of Bmal1-driven luciferase activity in fibroblasts. To be noted: media with 2 mM AICAR vs 25 mM glucose. The method, then:
(A) Unsynchronized paired wild type (AMPK^+/+) or ampkα1^−/−; ampkα2^−/− (AMPK−/−) mouse embryonic fibroblasts were stimulated by 2 hour exposure to 50% horse serum followed by transfer to media containing 25 mM glucose, 0.5 mM glucose or 25 mM glucose supplemented with 1 mM AICAR. Quantitative PCR analysis was performed using cDNA samples collected at the indicated times following stimulation. Data represent the mean of two independent experiments, each analyzed in triplicate. (B) Fibroblasts stably expressing Bmal1-luciferase were cultured in media containing the indicated amounts of glucose with or without 2 mM AICAR. Typical results of continuous monitoring of luciferase activity are shown. (C and D) Quantitation of the circadian period (C) and amplitude (D) of Bmal1-driven luciferase activity from experiments performed as described in (B). Data in (C) and (D) represent the mean±standard deviation for four samples per condition. ANOVA analysis indicated a significant difference between categories. ** P<0.01 vs. samples cultured in 25 mM glucose in Scheffe's post-hoc analysis.
The Bmal1 promoter is repressed by REVERBα. Therefore, the effects of reducing glucose availability on circadian rhythms was examined using fibroblasts stably expressing luciferase under the control of a Bmal1 promoter. […]

Take `NC(=O)c1ncn([C@@H]2O[C@H](CO)[C@@H](O)[C@H]2O)c1N` [AICAR, 5-amino-4-imidazolecarboxamide riboside]: in test [1], the “amplitude of circadian reverbα and dbp expression” value is “mimicked the effects of glucose deprivation”. Moreover, the “expression of reverbα and dbp” value in test [2] is “neither glucose deprivation nor AICAR treatment affected the expression of reverbα and dbp”. In test [3], the “amplitude of Bmal1-luciferase expression” value is recorded as “decreased the amplitude of Bmal1-luciferase expression”.
